{
  "source": "patent US20090221433A1",
  "about": "“SMALL MOLECULE PRINTING” (priority 2006, published 2009)",
  "key": {"[1]": {"system": "anti-17β-estradiol antibody", "experiment": "Bioactive microarray binding profile, anti-17β-estradiol antibody", "parameters": "species or system rabbit", "conditions": "anti-17β-estradiol then labeled secondary antibody; replicate arrays", "method": "(§1) To investigate the suitability of our approach for printing compounds that have not been intentionally synthesized with appendages for covalent capture, more than 300 commercially available bioactive compounds were printed onto isocyanate-functionalized slides. We screened these bioactive microarrays using rabbit primary antibodies against corticosterone, digitoxin, and 17β-estradiol, followed by a fluor-labeled goat anti-rabbit secondary antibody. The signal-to-noise ratio (SNR) was determined by calculating intensity at 635 nm and adjusting for local background for each feature on replicate arrays, and data were compared to replicate control arrays incubated with the labeled secondary antibody alone (FIG. 4). […] In the anti-corticosterone antibody binding profile, hydrocortisone (mean SNR 68.9), beclomethasone (63.3), and corticosterone (59.2), corticosteroids related in structure, scored as positives. […] 17β-estradiol (mean SNR 9.0), estriol (8.7) and estrone (7.3), primary estrogenic hormones varying in the number of reactive groups for capture, scored as positives in the anti-17β-estradiol binding profile.\n(§2) Small-molecule microarray profiles with antibodies against natural products. […] Arrays were dried by centrifugation and scanned for fluorescence at 635 nm. Signal-to-noise ratio was calculated for each feature using adjusted diameters."}, "anti-digitoxin antibody": {"system": "anti-digitoxin antibody", "experiment": "Bioactive microarray binding profile, anti-digitoxin antibody", "parameters": "species or system rabbit", "conditions": "anti-digitoxin then labeled secondary antibody; replicate arrays", "method": "We screened these bioactive microarrays using rabbit primary antibodies against corticosterone, digitoxin, and 17β-estradiol, followed by a fluor-labeled goat anti-rabbit secondary antibody. The signal-to-noise ratio (SNR) was determined by calculating intensity at 635 nm and adjusting for local background for each feature on replicate arrays, and data were compared to replicate control arrays incubated with the labeled secondary antibody alone (FIG. 4).\nMicroarrays printed with natural products and bioactives were incubated with various antibodies to detect specific compounds. In the first incubation step, arrays were incubated with 300 μL of one of the following: PBST buffer (control), a 1:500 solution of rabbit anti-corticosterone whole antiserum in PBST, 1:500 solution of rabbit anti-17β-estradiol whole antiserum in PBST for 30 min at room temperature. The arrays were briefly rinsed with PBST and then washed twice in PBST. All arrays were then incubated with 300 μL of a 1:1000 solution of Alexa Fluor® 647 […] polyclonal secondary antibody in PBST for 30 min at room temperature. Probed arrays were rinsed in PBST, washed three times in PBST, and washed once in PBS. Arrays were dried by centrifugation and scanned for fluorescence at 635 nm. Signal-to-noise ratio was calculated for each feature using adjusted diameters."}, "[2]": {"system": "Alexa Fluor 647 goat-anti-rabbit IgG", "experiment": "Bioactive microarray control, labeled secondary antibody alone", "type": "binding", "conditions": "labeled polyclonal secondary antibody alone", "method": "as §1, §2"}, "[3]": {"system": "anti-corticosterone antibody", "experiment": "Bioactive microarray binding profile, anti-corticosterone antibody", "conditions": "anti-corticosterone then Alexa Fluor 647 goat-anti-rabbit; replicate arrays", "method": "as §1, with “4). Six bioactives, with signal-to-noise ratios>3.0, were found in replicate arrays to bind to the labeled polyclonal secondary antibody alone. None of the compounds were autofluorescent at 635 nm as judged by arrays probed with PBS buffer alone (data not shown). Hygromycin B, an aminoglycoside antibiotic, gave the highest adjusted signal-to-noise ratio (mean SNR 47.6).” for “4).”\nas §2, with “products. Microarrays printed with natural products and bioactives were incubated with various antibodies to detect specific compounds.” for “products.”"}, "FKBP12": {"molecular_target": "FKBP12 (Homo sapiens, UniProt P62942)", "sequence (P62942 whole entry, species assumed)": "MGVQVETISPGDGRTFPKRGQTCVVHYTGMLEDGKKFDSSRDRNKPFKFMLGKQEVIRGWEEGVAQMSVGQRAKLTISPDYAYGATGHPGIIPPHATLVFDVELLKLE", "conditions": "affinity of AP1497 for FKBP12; cited from earlier work"}, "FKBP12-6xHis": {"molecular_target": "T1, FKBP12-6xHis (Homo sapiens, UniProt P62942)", "T1 construct": "made in house", "T1 sequence (P62942 whole entry)": "as the sequence (P62942 whole entry, species assumed) above", "conditions": "Table 1; cited from earlier work"}},
  "data": [
    {"compound": "C[C@]12CC[C@@H]3c4ccc(O)cc4CC[C@H]3[C@@H]1CC[C@@H]2O", "note": "[17β-estradiol]", "values": [
      {"measurement": "mean SNR (signal-to-noise ratio at 635 nm)", "setting": "[1]", "value": 9.0}
    ]},
    {"compound": "C[C@]12CC[C@H](O)C[C@H]1CC[C@@H]1[C@@H]2CC[C@]2(C)[C@@H](C3=CC(=O)OC3)[C@@H](O)C[C@]12O", "note": "[Gitoxigenin]", "values": [
      {"measurement": "mean SNR (signal-to-noise ratio at 635 nm)", "setting": "anti-digitoxin antibody", "value": 62.5}
    ]},
    {"compound": "CN[C@H]1C[C@@H](N)[C@H](O)[C@@H](O[C@@H]2O[C@H](CO)[C@H](O)[C@@H]3OC4(O[C@H]23)O[C@H]([C@@H](N)CO)[C@H](O)[C@H](O)[C@H]4O)[C@@H]1O", "note": "(stereo partly drawn) [Hygromycin B]", "values": [
      {"measurement": "adjusted signal-to-noise ratio (mean SNR)", "setting": "[2]", "value": 47.6}
    ]},
    {"compound": "C[C@H]1C[C@H]2[C@@H]3CCC4=CC(=O)C=C[C@]4(C)[C@@]3(Cl)[C@@H](O)C[C@]2(C)[C@@]1(O)C(=O)CO", "note": "[beclomethasone]", "values": [
      {"measurement": "mean SNR (signal-to-noise ratio at 635 nm)", "setting": "[3]", "value": 63.3}
    ]},
    {"compound": "C[C@@H]1O[C@@H](O[C@H]2CC[C@]3(C=O)[C@H]4CC[C@]5(C)[C@@H](C6=CC(=O)OC6)CC[C@]5(O)[C@@H]4CC[C@]3(O)C2)[C@H](O)[C@H](O)[C@H]1O", "note": "[convallatoxin]", "values": [
      {"measurement": "mean SNR (signal-to-noise ratio at 635 nm)", "setting": "anti-digitoxin antibody", "value": 52.7}
    ]},
    {"compound": "C[C@]12C[C@H](O)[C@H]3[C@@H](CCC4=CC(=O)CC[C@@]43C)[C@@H]1CC[C@@H]2C(=O)CO", "note": "[corticosterone]", "values": [
      {"measurement": "mean SNR (signal-to-noise ratio at 635 nm)", "setting": "[3]", "value": 59.2}
    ]},
    {"compound": "C[C@H]1O[C@@H](O[C@H]2[C@@H](O)C[C@H](O[C@H]3[C@@H](O)C[C@H](O[C@H]4CC[C@@]5(C)[C@H](CC[C@@H]6[C@@H]5CC[C@]5(C)[C@@H](C7=CC(=O)OC7)CC[C@]65O)C4)O[C@@H]3C)O[C@@H]2C)C[C@H](O)[C@@H]1O", "note": "[digitoxin]", "values": [
      {"measurement": "mean SNR (signal-to-noise ratio at 635 nm)", "setting": "anti-digitoxin antibody", "value": 15.1}
    ]},
    {"compound": "C[C@]12CC[C@@H]3c4ccc(O)cc4CC[C@H]3[C@@H]1C[C@@H](O)[C@@H]2O", "note": "[estriol]", "values": [
      {"measurement": "mean SNR (signal-to-noise ratio at 635 nm)", "setting": "[1]", "value": 8.7}
    ]},
    {"compound": "C[C@]12CCC(=O)C=C1CC[C@@H]1[C@@H]2[C@@H](O)C[C@@]2(C)[C@H]1CC[C@]2(O)C(=O)CO", "note": "[hydrocortisone]", "values": [
      {"measurement": "mean SNR (signal-to-noise ratio at 635 nm)", "setting": "[3]", "value": 68.9}
    ]},
    {"compound": "CC(=O)O[C@H]1C[C@H](O[C@H]2[C@@H](O)C[C@H](O[C@H]3[C@@H](O)C[C@H](O[C@H]4CC[C@@]5(C)[C@H](CC[C@@H]6[C@@H]5C[C@@H](O)[C@]5(C)[C@@H](C7=CC(=O)OC7)CC[C@]65O)C4)O[C@@H]3C)O[C@@H]2C)O[C@H](C)[C@H]1O[C@@H]1O[C@H](CO)[C@@H](O)[C@H](O)[C@H]1O", "note": "[lanatoside C]", "values": [
      {"measurement": "mean SNR (signal-to-noise ratio at 635 nm)", "setting": "anti-digitoxin antibody", "value": 24.0}
    ]},
    {"compound": "AP1497", "values": [
      {"measurement": "Kd", "setting": "FKBP12", "value": 8.8, "unit": "nM"},
      {"measurement": "Kd", "setting": "FKBP12-6xHis", "value": 18, "unit": "nM"}
    ]}
  ]
}
